Measured values from ChEMBL document CHEMBL1148664, “Synthesis and biological evaluation of rhodanine derivatives as PRL-3 inhibitors” (Bioorg Med Chem Lett, 2006).
Activity calls are given as the source filed them. No cut-off for these calls is given here.

Assays:
[1] = molecular target: T1, Protein tyrosine phosphatase type IVA 3 (Homo sapiens, UniProt O75365); assay: Inhibition of human recombinant PRL-3
[2] = molecular target: T1, Protein tyrosine phosphatase type IVA 3; assay: Inhibition of human recombinant PRL-3 up to 50 uM
B16-F10 = assay: Ability to reduce the invasiveness of tumor in B16F10 cells; assay type: functional, cell-based; settings: Mus musculus

T1 sequence (O75365 whole entry): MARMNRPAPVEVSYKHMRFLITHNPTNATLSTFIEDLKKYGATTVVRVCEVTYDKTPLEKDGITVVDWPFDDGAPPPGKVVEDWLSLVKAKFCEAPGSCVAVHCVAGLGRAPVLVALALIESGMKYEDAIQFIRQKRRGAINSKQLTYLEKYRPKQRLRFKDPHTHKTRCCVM

| SMILES | inhibition [2] | further results |
| --- | --- | --- |
| N=C(N)c1ccc(OCCCCCOc2ccc(C(=N)N)cc2)cc1 [PENTAMIDINE] |  | IC50 [1]: 53.6 µM |
| O=C1NC(=O)/C(=C/c2cc(Br)ccc2OCc2ccccc2)S1 | inactive |  |
| O=C1NC(=S)S/C1=C\c1cc2ccccc2cc1OCc1c(F)cccc1Cl |  | Activity (B16-F10): Active |
| O=C1NC(=S)S/C1=C\c1ccccc1OCc1ccccc1 | inactive |  |
| O=C1NC(=S)S/C1=C\c1cc(Br)ccc1O |  | IC50 [1]: 9.5 µM |
| O=Cc1cc(Br)ccc1O | inactive |  |
| CN1C(=O)/C(=C/c2cc(Br)ccc2OCc2ccccc2)SC1=S | inactive |  |
| CS(=O)(=O)Oc1ccc(Br)cc1/C=C1\SC(=S)NC1=O | inactive |  |
| O=C1NC(=S)S/C1=C\c1cc(Br)ccc1OCc1ccccc1Br |  | Activity (B16-F10): Active |
| O=C1NC(=S)S/C1=C\c1cc(Br)ccc1OCc1cccnc1 | inactive |  |
